Experimental data reported in patent US11066425B1, “Oxo-substituted compound” (SUMITOMO DAINIPPON PHARMA CO., LTD., priority 2018, dated 2021).
Counter-ions that a name gives are not always drawn.

System: β-lactamase producing bacteria
Assay: Test Example 1: MIC of meropenem (MEPM) combined with test compound at fixed 4 μg/mL, broth microdilution
Assay type: cell-based
Conditions: relative to MEPM alone
Procedure: Test Example 1: Evaluation of Minimum Inhibitory Concentration (MIC) of MEPM Against β-Lactamase Producing Bacteria
To evaluate the β-lactamase inhibitory activity of test compounds, the effect of combination of a test compound and a β-lactam agent against β-lactamase producing bacteria was evaluated. Meropenem (MEPM) was used as a β-lactam antimicrobial agent. The minimum inhibitory concentration (MIC) of MEPM against β-lactamase producing bacteria when a test compound was added at a fixed concentration (4 μg/mL) was measured by broth microdilution method (common ratio: 2). MIC of MEPM decreasing to less than 1/32 in combination with a test compound is indicated by A, decreasing from 1/32 to 1/16 is indicated by B, decreasing from ⅛ to ¼ is indicated by C, and decreasing to ½ or others are indicated by D. “-” represents untested cases.

O=C(O)c1c(OC2CN(C(=O)Cc3ccccn3)C2)ccc2c1O[B-](O)(O)CC2 [Example 13, 4,4-dihydroxy-8-({1-[(pyridin-2-yl)acetyl]azetidin-3-yl}oxy)-5-oxa-4-boranuidabicyclo[4.4.0]deca-l(6),7,9-triene-7-carboxylic acid disodium salt]
Decrease of MIC of MEPM in combination with a test compound, E. coli ATCC BAA-2340 (KPC): A (MIC of MEPM decreasing to less than 1/32 in combination with a test compound is indicated by A)
Decrease of MIC of MEPM in combination with a test compound, K. pneumoniae ATCC BAA-2344 (KPC): A (MIC of MEPM decreasing to less than 1/32 in combination with a test compound is indicated by A)
Decrease of MIC of MEPM in combination with a test compound, K. pneumoniae ATCC BAA-2524 (OXA-48): B (decreasing from 1/32 to 1/16 is indicated by B)

O=C(O)c1c(OC2CN(C(=O)Cc3cccnc3)C2)ccc2c1O[B-](O)(O)CC2 [Example 14, 4,4-dihydroxy-8-({1-[(pyridin-3-yl)acetyl]azetidin-3-yl}oxy)-5-oxa-4-boranuidabicyclo[4.4.0]deca-l(6),7,9-triene-7-carboxylic acid disodium salt]
Decrease of MIC of MEPM in combination with a test compound, E. coli ATCC BAA-2340 (KPC): A (MIC of MEPM decreasing to less than 1/32 in combination with a test compound is indicated by A)
Decrease of MIC of MEPM in combination with a test compound, K. pneumoniae ATCC BAA-2344 (KPC): A (MIC of MEPM decreasing to less than 1/32 in combination with a test compound is indicated by A)
Decrease of MIC of MEPM in combination with a test compound, K. pneumoniae ATCC BAA-2524 (OXA-48): B (decreasing from 1/32 to 1/16 is indicated by B)

Cl.O=C(O)c1c(OC2CN(C(=O)c3ccccn3)C2)ccc2c1OB(O)CC2 [Example 6, 2-hydroxy-7-{[1-(pyridine-2-carbonyl)azetidin-3-yl]oxy}-3,4-dihydro-2H-1,2-benzoxaborinine-8-carboxylic acid hydrochloride]
Decrease of MIC of MEPM in combination with a test compound, E. coli ATCC BAA-2340 (KPC): A (MIC of MEPM decreasing to less than 1/32 in combination with a test compound is indicated by A)
Decrease of MIC of MEPM in combination with a test compound, K. pneumoniae ATCC BAA-2344 (KPC): A (MIC of MEPM decreasing to less than 1/32 in combination with a test compound is indicated by A)
Decrease of MIC of MEPM in combination with a test compound, K. pneumoniae ATCC BAA-2524 (OXA-48): B (decreasing from 1/32 to 1/16 is indicated by B)

CC(=O)N1CC(Oc2ccc3c(c2C(=O)O)OB(O)CC3)C1 [Example 1, 7-[(1-acetylazetidin-3-yl)oxy]-2-hydroxy-3,4-dihydro-2H-1,2-benzoxaborinine-8-carboxylic Acid]
Decrease of MIC of MEPM in combination with a test compound, E. coli ATCC BAA-2340 (KPC): A (MIC of MEPM decreasing to less than 1/32 in combination with a test compound is indicated by A)
Decrease of MIC of MEPM in combination with a test compound, K. pneumoniae ATCC BAA-2344 (KPC): A (MIC of MEPM decreasing to less than 1/32 in combination with a test compound is indicated by A)
Decrease of MIC of MEPM in combination with a test compound, K. pneumoniae ATCC BAA-2524 (OXA-48): B (decreasing from 1/32 to 1/16 is indicated by B)

O=C(O)c1c(OC2CN(C(=O)CCc3ccccc3)C2)ccc2c1O[B-](O)(O)CC2 [Example 21, 4,4-dihydroxy-8-{[1-(3-phenylpropanoyl)azetidin-3-yl]oxy}-5-oxa-4-boranuidabicyclo[4.4.0]deca-l(6),7,9-triene-7-carboxylic acid disodium salt]
Decrease of MIC of MEPM in combination with a test compound, E. coli ATCC BAA-2340 (KPC): A (MIC of MEPM decreasing to less than 1/32 in combination with a test compound is indicated by A)
Decrease of MIC of MEPM in combination with a test compound, K. pneumoniae ATCC BAA-2344 (KPC): B (decreasing from 1/32 to 1/16 is indicated by B)
Decrease of MIC of MEPM in combination with a test compound, K. pneumoniae ATCC BAA-2524 (OXA-48): C (decreasing from ⅛ to ¼ is indicated by C)

O=C(O)c1c(OC2CN(C(=O)Cc3ccc(O)cc3)C2)ccc2c1O[B-](O)(O)CC2 [Example 17, 4,4-dihydroxy-8-({1-[(4-hydroxyphenyl)acetyl]azetidin-3-yl}oxy)-5-oxa-4-boranuidabicyclo[4.4.0]deca-l(6),7,9-triene-7-carboxylic acid disodium salt]
Decrease of MIC of MEPM in combination with a test compound, E. coli ATCC BAA-2340 (KPC): A (MIC of MEPM decreasing to less than 1/32 in combination with a test compound is indicated by A)
Decrease of MIC of MEPM in combination with a test compound, K. pneumoniae ATCC BAA-2344 (KPC): B (decreasing from 1/32 to 1/16 is indicated by B)
Decrease of MIC of MEPM in combination with a test compound, K. pneumoniae ATCC BAA-2524 (OXA-48): B (decreasing from 1/32 to 1/16 is indicated by B)
